# pIC50: −log10 of the molar value. Calls of active or inactive are those of the source. No cut-off for these calls is given here.
# What was measured:
# RAW264.7 [1] = experiment: Cytotoxicity against mouse RAW264.7 cells at 10 uM by CCK-8 assay; format: functional, cell-based
# RAW264.7 [2] = experiment: Anti-inflammatory activity against LPS-induced mouse RAW264.7 cells assessed as inhibition of IL-1beta mRNA level at 10 uM preincubated with compound for 1 hr followed by LPS-induction and measured after 4 to 24 hrs by RT-qPCR analysis; format: functional; details: time 5-25 hrs
# RAW264.7 [3] = experiment: Anti-inflammatory activity against LPS-induced mouse RAW264.7 cells assessed as inhibition of IL-6 mRNA level at 10 uM preincubated with compound for 1 hr followed by LPS-induction and measured after 4 to 24 hrs by RT-qPCR analysis; format: functional; details: time 5-25 hrs
# RAW264.7 [4] = experiment: Anti-inflammatory activity against LPS-induced mouse RAW264.7 cells assessed as inhibition of IL-6 mRNA level preincubated with compound for 1 hr followed by LPS-induction and measured after 4 to 24 hrs by RT-qPCR analysis; format: functional, cell-based; details: dose 10-50 µM, time 5-25 hrs
# RAW264.7 [5] = experiment: Anti-inflammatory activity against LPS-induced mouse RAW264.7 cells assessed as inhibition of IL-1beta mRNA level preincubated with compound for 1 hr followed by LPS-induction and measured after 4 to 24 hrs by RT-qPCR analysis; format: functional, cell-based; details: dose 10-50 µM, time 5-25 hrs
# RAW264.7 [6] = experiment: Anti-inflammatory activity against LPS-induced mouse RAW264.7 cells assessed as inhibition of TNF-alpha mRNA level preincubated with compound for 1 hr followed by LPS-induction and measured after 4 to 24 hrs by RT-qPCR analysis; format: functional, cell-based; details: dose 10-50 µM, time 5-25 hrs
# [7] = Toxicity in C57BL/6 mouse assessed as reduction in body weight at 15 to 60 mg/kg, po administered for 7 days; format: organism-based; details: in vivo, 168 h, dose 15-60 mg/kg, time 7 day
# RAW264.7 [8] = experiment: Anti-inflammatory activity against LPS-induced mouse RAW264.7 cells assessed as inhibition of IL-6 level incubated for 24 hrs by ELISA analysis; format: functional, cell-based; details: RAW264.7, 24 h
# Mus musculus [9] = experiment: Anti-inflammatory activity against PM2.5-induced lung injury C57BL/6 mouse model assessed as reduction in number of cells in BALF at 15 to 60 mg/kg, po administered for 7 days; format: functional, organism-based; details: dose 15-60 mg/kg, time 7.0 day
# Mus musculus [10] = experiment: Anti-inflammatory activity against PM2.5-induced lung injury C57BL/6 mouse model assessed as reduction in WBC cells in peripheral blood at 15 to 60 mg/kg, po administered for 7 days; format: functional, organism-based; details: dose 15-60 mg/kg, time 7.0 day
# Mus musculus [11] = experiment: Anti-inflammatory activity against PM2.5-induced lung injury C57BL/6 mouse model assessed as lung particle aggregation at 15 to 60 mg/kg, po administered for 7 days by H and E staining based analysis; format: functional, organism-based; details: dose 15-60 mg/kg, time 7.0 day
# Mus musculus [12] = experiment: Anti-inflammatory activity against PM2.5-induced lung injury C57BL/6 mouse model assessed as infiltration of inflammatory cells at 15 to 60 mg/kg, po administered for 7 days by H and E staining based analysis; format: functional, organism-based; details: dose 15-60 mg/kg, time 7.0 day
# Mus musculus [13] = experiment: Anti-inflammatory activity against PM2.5-induced lung injury C57BL/6 mouse model assessed as pulmonary alveoli collapse at 15 to 60 mg/kg, po administered for 7 days by H and E staining based analysis; format: functional, organism-based; details: dose 15-60 mg/kg, time 7.0 day
# Mus musculus [14] = experiment: Anti-inflammatory activity against PM2.5-induced lung injury C57BL/6 mouse model assessed as decrease in collagen formation in lung at 15 to 60 mg/kg, po administered for 7 days by Masson staining based analysis; format: functional, organism-based; details: dose 15-60 mg/kg, time 7.0 day
# Mus musculus [15] = experiment: Anti-inflammatory activity against PM2.5-induced lung injury C57BL/6 mouse model assessed as decrease in LY6G expression in lung at 15 to 60 mg/kg, po administered for 7 days by IHC analysis; format: functional, organism-based; details: dose 15-60 mg/kg, time 7.0 day
# Mus musculus [16] = experiment: Anti-inflammatory activity against PM2.5-induced lung injury C57BL/6 mouse model assessed as decrease in iNOS expression in lung at 15 to 60 mg/kg, po administered for 7 days by IHC analysis; format: functional, organism-based; details: dose 15-60 mg/kg, time 7.0 day
# Mus musculus [17] = experiment: Anti-inflammatory activity against PM2.5-induced lung injury C57BL/6 mouse model assessed as increase in Arg-1 level in lung at 15 to 60 mg/kg, po administered for 7 days by IHC analysis; format: functional, organism-based; details: dose 15-60 mg/kg, time 7.0 day
# NCI-H292 = experiment: Anti-inflammatory activity against EGF-induced human NCI-H292 cells assessed as decrease in MUC5AC mRNA expression at 20 to 50 uM by RT-qPCR analysis; format: functional, cell-based; details: dose 20-50 µM
# Mus musculus [18] = experiment: Anti-inflammatory activity against PM2.5-induced lung injury C57BL/6 mouse model assessed as inhibition of mucin expression in lung at 15 to 60 mg/kg, po administered for 7 days by AB-PAS staining based analysis; format: functional, organism-based; details: dose 15-60 mg/kg, time 7.0 day
# [19] = Toxicity in C57BL/6 mouse assessed as liver damage at 15 to 60 mg/kg, po administered for 7 days by H and E staining based analysis; format: organism-based; details: in vivo, 168 h, dose 15-60 mg/kg, time 7 day
# [20] = Toxicity in C57BL/6 mouse assessed as pathological changes in kidney at 15 to 60 mg/kg, po administered for 7 days by H and E staining based analysis; format: organism-based; details: in vivo, 168 h, dose 15-60 mg/kg, time 7 day
# RAW264.7 [21] = experiment: Upregulation of Nrf2 mRNA level in LPS-induced mouse RAW264.7 cells at 10 to 50 uM; format: functional, cell-based; details: dose 10-50 µM
# RAW264.7 [22] = experiment: Upregulation of HO-1 mRNA level in LPS-induced mouse RAW264.7 cells at 10 to 50 uM; format: functional, cell-based; details: dose 10-50 µM
# RAW264.7 [23] = experiment: Upregulation of Keap1 mRNA level in LPS-induced mouse RAW264.7 cells at 10 to 50 uM; format: functional, cell-based; details: dose 10-50 µM
# RAW264.7 [24] = experiment: Activation of Nrf2-Keap1-HO-1 signaling pathway in mouse RAW264.7 cells assessed as upregulation of HO-1 expression at 10 to 50 uM by Western blot analysis; format: cell-based; details: filed as activator, dose 10-50 µM
# RAW264.7 [25] = experiment: Activation of Nrf2-Keap1-HO-1 signaling pathway in mouse RAW264.7 cells assessed as upregulation of P62 expression at 10 to 50 uM by Western blot analysis; format: cell-based; details: filed as activator, dose 10-50 µM
# RAW264.7 [26] = experiment: Anti-inflammatory activity against LPS-induced mouse RAW264.7 cells assessed as increase in NRF2 nuclear translocation by laser confocal scanning microscopic analysis; format: functional, cell-based
# RAW264.7 [27] = experiment: Anti-inflammatory activity against LPS-induced mouse RAW264.7 cells assessed as inhibition of IL-1beta mRNA level at 20 uM preincubated with compound for 1 hr followed by LPS-induction and measured after 4 to 24 hrs by RT-qPCR analysis; format: functional, cell-based; details: time 5-25 hrs
# RAW264.7 [28] = experiment: Anti-inflammatory activity against LPS-induced mouse RAW264.7 cells assessed as inhibition of TNF-alpha mRNA level at 20 uM preincubated with compound for 1 hr followed by LPS-induction and measured after 4 to 24 hrs by RT-qPCR analysis; format: functional, cell-based; details: time 5-25 hrs
# RAW264.7 [29] = experiment: Activation of Nrf2/HO-1 signalling pathway in LPS-induced mouse RAW264.7 cells assessed as induction of Nrf2 nuclear translocation at 20 uM; format: cell-based; details: filed as activator
# RAW264.7 [30] = experiment: Activation of Nrf2/HO-1 signalling pathway in LPS-induced mouse RAW264.7 cells assessed as induction of Nrf2 nuclear translocation at 20 uM in presence of KI696; format: cell-based; details: filed as activator
# RAW264.7 [31] = experiment: Activation of Nrf2/HO-1 signalling pathway in LPS-induced mouse RAW264.7 cells assessed as induction of Nrf2 nuclear translocation at 2 uM; format: cell-based; details: filed as activator
# RAW264.7 [32] = experiment: Anti-inflammatory activity against LPS-induced mouse RAW264.7 cells assessed as inhibition of IL-1beta mRNA level at 2 uM preincubated with compound for 1 hr followed by LPS-induction and measured after 4 to 24 hrs by RT-qPCR analysis; format: functional, cell-based; details: time 5-25 hrs
# RAW264.7 [33] = experiment: Anti-inflammatory activity against LPS-induced mouse RAW264.7 cells assessed as inhibition of TNF-alpha mRNA level at 2 uM preincubated with compound for 1 hr followed by LPS-induction and measured after 4 to 24 hrs by RT-qPCR analysis; format: functional, cell-based; details: time 5-25 hrs
compound,measurement,setting,value
Cc1ccc(-n2nc(C(=O)N(C)/C=C\c3ccccc3)cc2C(C)(C)C)cc1,Activity,RAW264.7 [1],Active
CN(/C=C\c1ccccc1)C(=O)c1cc(-c2ccc(C(F)(F)F)cc2)nn1-c1ccc(C(F)(F)F)cc1,inhibition at 10 µM,RAW264.7 [2],93.5%
CN(/C=C\c1ccccc1)C(=O)c1cc(-c2ccccc2Cl)nn1-c1ccc(C(F)(F)F)cc1,inhibition at 10 µM,RAW264.7 [3],53.9%
same,inhibition at 10 µM,RAW264.7 [2],97.1%
Cc1cccc(-c2cc(C(=O)N(C)/C=C\c3ccccc3)n(-c3ccc(C(F)(F)F)cc3)n2)c1,inhibition at 10 µM,RAW264.7 [3],49.5%
same,inhibition at 10 µM,RAW264.7 [2],9.84%
CN(/C=C\c1ccccc1)C(=O)c1cc(-c2ccccc2C(F)(F)F)nn1-c1ccc(C(F)(F)F)cc1,inhibition at 10 µM,RAW264.7 [2],96%
COc1ccc(-n2nc(C(=O)N(C)/C=C\c3ccccc3)cc2C(C)(C)C)cc1,inhibition at 10 µM,RAW264.7 [2],94.7%
CN(/C=C\c1ccccc1)C(=O)c1cc(-c2ccccc2)nn1-c1ccc(C(F)(F)F)cc1,inhibition at 10 µM,RAW264.7 [2],94.5%
CN(/C=C\c1ccccc1)C(=O)c1cc(-c2ccccc2F)nn1-c1ccc(C(F)(F)F)cc1,inhibition at 10 µM,RAW264.7 [3],50.2%
same,inhibition at 10 µM,RAW264.7 [2],96.5%
CN(/C=C\c1ccccc1)C(=O)c1cc(C(C)(C)C)n(-c2ccc(F)cc2)n1,inhibition at 10 µM,RAW264.7 [3],60.3%
same,inhibition at 10 µM,RAW264.7 [2],96%
same,Activity,RAW264.7 [4],Dose-dependent-effect
same,Activity,RAW264.7 [5],Dose-dependent-effect
same,Activity,RAW264.7 [6],Dose-dependent-effect
same,Activity,[7],Non-toxic
same,pIC50,RAW264.7 [8],5.32
same,Activity,Mus musculus [9],Active
same,Activity,Mus musculus [10],Active
same,Activity,Mus musculus [11],Active
same,Activity,Mus musculus [12],Active
same,Activity,Mus musculus [13],Active
same,Activity,Mus musculus [14],Active
same,Activity,Mus musculus [15],Active
same,Activity,Mus musculus [16],Active
same,Activity,Mus musculus [17],Active
same,Activity,NCI-H292,Active
same,Activity,Mus musculus [18],Active
same,Activity,[19],Non-toxic
same,Activity,[20],Non-toxic
same,Activity,RAW264.7 [21],Active
same,Activity,RAW264.7 [22],Active
same,Activity,RAW264.7 [23],Active
same,Activity,RAW264.7 [24],Active
same,Activity,RAW264.7 [25],Active
same,Activity,RAW264.7 [26],Active
same,Activity,RAW264.7 [27],Active
same,Activity,RAW264.7 [28],Active
same,Activity,RAW264.7 [29],Active
same,Activity,RAW264.7 [30],Active
Cc1ccccc1-c1cc(C(=O)N(C)/C=C\c2ccccc2)n(-c2ccc(C(F)(F)F)cc2)n1,inhibition at 10 µM,RAW264.7 [2],95.8%
CN(/C=C\c1ccccc1)C(=O)/C=C/c1ccccc1 [LANSIUMAMIDE B],inhibition at 10 µM,RAW264.7 [3],73.4%
same,inhibition at 10 µM,RAW264.7 [2],18%
COc1cc([C@@H](CC(=O)O)c2ccc(C)c(CN3C[C@@H](C)Oc4ccccc4S3(=O)=O)c2)cc2nnn(C)c12,Activity,RAW264.7 [26],Active
same,Activity,RAW264.7 [31],Active
same,Activity,RAW264.7 [32],Active
same,Activity,RAW264.7 [33],Active
Cc1ccc(-c2cc(C(=O)N(C)/C=C\c3ccccc3)n(-c3ccc(C(F)(F)F)cc3)n2)cc1,inhibition at 10 µM,RAW264.7 [2],91.1%

# — ChEMBL document CHEMBL6096651, “Synthesis, evaluation and mechanism study of novel pyrazole enamides to alleviate lung injury” (Eur J Med Chem, 2025)
